Laboratory results taken from patent US8163793B2, “Proline derivatives” (Hoffman-La Roche Inc., priority 2009, dated 2012).

What was measured:
Cat L = Cat L (UniProt P07711); assay: Cathepsin enzyme inhibition assay (fluorogenic peptide substrate Z-Val-Val-Arg-AMC), Cathepsin L; type: biochemical, human and mouse; conditions: enzyme 1 nM, substrate 20 μM, pH 6.5; read-out: CatL IC50
How it was run: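 Cathepsin L at 1 nM was mixed with compound, then started with 20 μM Z-Val-Val-Arg-AMC in pH 6.5 potassium phosphate with EDTA, Triton X-100 and 5 mM DTT. AMC fluorescence (ex 360/em 465 nm) was followed over 20 min. IC50 is given in μM.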

Cathepsin S = Cathepsin S (UniProt P25774); assay: Cathepsin enzyme inhibition assay (fluorogenic peptide substrate Z-Val-Val-Arg-AMC), Cathepsin S; type: biochemical, human and mouse; conditions: enzyme 1 nM, substrate 20 μM, pH 6.5; read-out: CatS IC50
How it was run: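 Human or mouse cathepsin S (1 nM) was run in 100 mM potassium phosphate pH 6.5 with 5 mM EDTA, 0.001% Triton X-100 and 5 mM DTT. The rise in AMC fluorescence from cleavage was measured, and IC50 values were calculated by standard methods and expressed in μM.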

| Structure (SMILES) | IC50 (Cat L) [nM] | IC50 (Cathepsin S) [nM] |
| --- | --- | --- |
| Cc1cc(N2C[C@H](S(=O)(=O)c3ccccc3)C[C@H]2C(=O)NC2(C#N)CC2)n(-c2ccnc(Cl)c2)n1 [Example 262, (2S,4R)-4-Benzenesulfonyl-1-[2-(2-chloro-pyridin-4-yl)-5-methyl-2H-pyrazol-3-yl]-pyrrolidine-2-carboxylic acid (1-cyano-cyclopropyl)-amide] | 28700 | 4.4 |
| Cc1cc(N2C[C@H](S(=O)(=O)c3ccc(F)cc3C(F)(F)F)C[C@H]2C(=O)NC2(C#N)CC2)n(-c2ccnc(Cl)c2)n1 [Example 266, (2S,4R)-1-[2-(2-Chloro-pyridin-4-yl)-5-methyl-2H-pyrazol-3-yl]-4-(4-fluoro-2-trifluoromethyl-benzenesulfonyl)-pyrrolidine-2-carboxylic acid (1-cyano-cyclopropyl)-amide] | 22100 | 1.3 |
| Cc1cc(N2C[C@H](S(=O)(=O)c3ccc(F)cc3Cl)C[C@H]2C(=O)NC2(C#N)CC2)n(C2CCC2)n1 [Example 385, (2S,4R)-4-(2-Chloro-4-fluoro-benzenesulfonyl)-1-(2-cyclobutyl-5-methyl-2H-pyrazol-3-yl)-pyrrolidine-2-carboxylic acid (1-cyano-cyclopropyl)-amide] | 6460 | 0.54 |
| N#CCNC(=O)[C@@H]1C[C@@H](S(=O)(=O)c2ccccc2Cl)CN1C(=O)c1ccccc1 [Example 58, (2S,4R)-1-Benzoyl-4-(2-chloro-benzenesulfonyl)-pyrrolidine-2-carboxylic acid cyanomethyl-amide] | 27400 | 1.6 |
| Cc1cc(N2C[C@H](S(=O)(=O)c3ccccc3C(F)(F)F)C[C@@H]2C(=O)NC2(C#N)CC2)n(C2CCCCC2)n1 [Example 320, (2R,4R)-1-(2-Cyclohexyl-5-methyl-2H-pyrazol-3-yl)-4-(2-trifluoromethyl-benzenesulfonyl)-pyrrolidine-2-carboxylic acid (1-cyano-cyclopropyl)-amide] | ≥ 25000 | 80.5 |
| N#CCNC(=O)[C@@H]1C[C@@H](S(=O)(=O)c2ccccc2Cl)CN1C(c1ccccc1)C(F)(F)F (stereo partly drawn) [Example 57, (2S,4R)-4-(2-Chloro-benzenesulfonyl)-1-(2,2,2-trifluoro-1-phenyl-ethyl)-pyrrolidine-2-carboxylic acid cyanomethyl-amide] | 17000 | 14.3 |
| Cc1cc(N2C[C@H](S(=O)(=O)c3ccc(N4CC(F)(F)C4)cc3Cl)C[C@H]2C(=O)NC2(C#N)CC2)n(C2CCOCC2)n1 [Example 464, (2S,4R)-4-(2-chloro-4-(3,3-difluoroazetidin-1-yl)phenylsulfonyl)-N-(1-cyanocyclopropyl)-1-(3-methyl-1-(tetrahydro-2H-pyran-4-yl)-1H-pyrazol-5-yl)pyrrolidine-2-carboxamide] | 3020 | 1.15 |
| N#CC1(NC(=O)[C@@H]2C[C@@H](S(=O)(=O)c3ccccc3C(F)(F)F)CN2c2nnc(C(F)(F)F)s2)CC1 [Example 335, (2S,4R)-4-(2-Trifluoromethyl-benzenesulfonyl)-1-(5-trifluoromethyl-[1,3,4]thiadiazol-2-yl)-pyrrolidine-2-carboxylic acid (1-cyano-cyclopropyl)-amide] | ≥ 25000 | 0.484 |
| CC(C)(C)OC(=O)N1C[C@H](S(=O)(=O)c2ccc(-n3cnc4ccccc43)cc2C(F)(F)F)C[C@H]1C(=O)NC1(C#N)CC1 [Example 9, (2S,4R)-4-(4-Benzoimidazol-1-yl-2-trifluoromethyl-benzenesulfonyl)-2-(1-cyano-cyclopropylcarbamoyl)-pyrrolidine-1-carboxylic acid tert-butyl ester] | ≥ 25000 | 0.6 |
| Cc1ccc(=O)n(-c2ccc(S(=O)(=O)[C@@H]3C[C@@H](C(=O)NC4(C#N)CC4)N(C(=O)OC(C)(C)C)C3)c(C(F)(F)F)c2)n1 [Example 10, (2S,4R)-2-(1-Cyano-cyclopropylcarbamoyl)-4-[4-(3-methyl-6-oxo-6H-pyridazin-1-yl)-2-trifluoromethyl-benzenesulfonyl]-pyrrolidine-1-carboxylic acid tert-butyl ester] | ≥ 25000 | 0.7 |

Further lines, results first:

| IC50 (Cat L) [nM] | IC50 (Cathepsin S) [nM] | Structure (SMILES) |
| --- | --- | --- |
| 1180 | 0.123 | CC(C)(C)N1CCN(c2ccc(S(=O)(=O)[C@@H]3C[C@@H](C(=O)NC4(C#N)CC4)N(C(=O)C4(C(F)(F)F)CC4)C3)c(Cl)c2)CC1 [Example 296, (2S,4R)-4-[4-(4-tert-Butyl-piperazin-1-yl)-2-chloro-benzenesulfonyl]-1-(1-trifluoromethyl-cyclopropanecarbonyl)-pyrrolidine-2-carboxylic acid (1-cyano-cyclopropyl)-amide] |
| 17400 | 1.4 | N#CC1(NC(=O)[C@@H]2C[C@@H](S(=O)(=O)c3ccc(Cl)cc3Cl)CN2c2ccccc2[N+](=O)[O-])CC1 [Example 167, (2S,4R)-4-(2,4-Dichloro-benzenesulfonyl)-1-(2-nitro-phenyl)-pyrrolidine-2-carboxylic acid (1-cyano-cyclopropyl)-amide] |
| 115 | 0.595 | CC(C)C(C(=O)N1C[C@H](S(=O)(=O)c2ccccc2Cl)C[C@H]1C(=O)NC1(C#N)CC1)c1ccc(Cl)cc1 (stereo partly drawn) [Example 432, (2S,4R)-1-(2-(4-chlorophenyl)-3-methylbutanoyl)-4-(2-chlorophenylsulfonyl)-N-(1-cyanocyclopropyl)pyrrolidine-2-carboxamide] |
| ≥ 25000 | 240 | CC(C)CS(=O)(=O)[C@@H]1C[C@@H](C(=O)NC2(C#N)CC2)N(C(=O)C2(c3ccc(Cl)cc3)CC2)C1 [Example 236, (2S,4R)-1-[1-(4-Chloro-phenyl)-cyclopropanecarbonyl]-4-(2-methyl-propane-1-sulfonyl)-pyrrolidine-2-carboxylic acid (1-cyano-cyclopropyl)-amide] |
| 2750 | 0.003 | N#CC1(NC(=O)[C@@H]2C[C@@H](S(=O)(=O)c3ccc(OCC(F)(F)F)cc3Cl)CN2C(=O)C2(c3ccc(Cl)cc3)CCC2)CC1 [Example 278, (2S,4R)-1-[1-(4-Chloro-phenyl)-cyclobutanecarbonyl]-4-[2-chloro-4-(2,2,2-trifluoro-ethoxy)-benzenesulfonyl]-pyrrolidine-2-carboxylic acid (1-cyano-cyclopropyl)-amide] |
| ≥ 25000 | 150 | Cc1cc(N2C[C@H](S(=O)(=O)c3ccccc3C(F)(F)F)C[C@@H]2C(=O)NC2(C#N)CC2)n(CC(C)C)n1 [Example 341, (2R,4R)-1-(2-Isobutyl-5-methyl-2H-pyrazol-3-yl)-4-(2-trifluoromethyl-benzenesulfonyl)-pyrrolidine-2-carboxylic acid (1-cyano-cyclopropyl)-amide] |
| 15400 | 0.9 | CC(C)CC(=O)N1C[C@H](S(=O)(=O)c2ccc(Cl)cc2Cl)C[C@H]1C(=O)NC1(C#N)CC1 [Example 228, (2S,4R)-4-(2,4-Dichloro-benzenesulfonyl)-1-(3-methyl-butyryl)-pyrrolidine-2-carboxylic acid (1-cyano-cyclopropyl)-amide] |
| 42.7 | 0.08 | N#CC1(NC(=O)[C@@H]2C[C@@H](S(=O)(=O)c3ccc(N4CCN5CCC[C@H]5C4)cc3Cl)CN2C(=O)C2(c3ccc(Cl)nc3)CC2)CC1 [Example 373, (2S,4R)-4-((S)-2-Chloro-4-hexahydro-pyrrolo[1,2-a]pyrazin-2-yl-benzenesulfonyl)-1-[1-(6-chloro-pyridin-3-yl)-cyclopropanecarbonyl]-pyrrolidine-2-carboxylic acid (1-cyano-cyclopropyl)-amide; Compound with Formic Acid] |
| 50.3 | 0.07 | N#CC1(NC(=O)[C@@H]2C[C@@H](S(=O)(=O)c3ccc(N4CCN(C5CC5)CC4)cc3Cl)CN2C(=O)C2(c3ccc(Cl)nc3)CC2)CC1 [Example 374, (2S,4R)-4-[2-Chloro-4-(4-cyclopropyl-piperazin-1-yl)-benzenesulfonyl]-1-[1-(6-chloro-pyridin-3-yl)-cyclopropanecarbonyl]-pyrrolidine-2-carboxylic acid (1-cyano-cyclopropyl)-amide; Compound with Formic Acid] |
| 19000 | 0.9 | C[C@H](Oc1ccc(S(=O)(=O)[C@@H]2C[C@@H](C(=O)NC3(C#N)CC3)N(C(=O)C3CC3)C2)c(Cl)c1)C(F)(F)F [Example 197, (2S,4R)-4-[2-Chloro-4-((S)-2,2,2-trifluoro-1-methyl-ethoxy)-benzenesulfonyl]-1-cyclopropanecarbonyl-pyrrolidine-2-carboxylic acid (1-cyano-cyclopropyl)-amide] |
| ≥ 25000 | 2.6 | N#CC1(NC(=O)[C@@H]2C[C@@H](S(=O)(=O)c3ccccc3Cl)CN2C(=O)Oc2ccc(F)cc2)CC1 [Example 99, (2S,4R)-4-(2-Chloro-benzenesulfonyl)-2-(1-cyano-cyclopropylcarbamoyl)-pyrrolidine-1-carboxylic acid 4-fluoro-phenyl Ester] |
| 575 | 0.03 | N#CC1(NC(=O)[C@@H]2C[C@@H](S(=O)(=O)c3ccc(OCC(F)(F)F)cc3Cl)CN2C(=O)C2(c3ccc(Cl)cc3)CCCC2)CC1 [Example 302, (2S,4R)-1-[1-(4-Chloro-phenyl)-cyclopentanecarbonyl]-4-[2-chloro-4-(2,2,2-trifluoro-ethoxy)-benzenesulfonyl]-pyrrolidine-2-carboxylic acid (1-cyano-cyclopropyl)-amide] |
| > 25000 | 5130 | Cc1cc(N2C[C@H](S(C)(=O)=O)C[C@H]2C(=O)NC2(C#N)CC2)n(-c2ccnc(Cl)c2)n1 [Example 463, (2S,4R)-1-[2-(2-Chloro-pyridin-4-yl)-5-methyl-2H-pyrazol-3-yl]-4-methanesulfonyl-pyrrolidine-2-carboxylic acid (1-cyano-cyclopropyl)-amide] |
